The values that follow come from patent US20250057828A1, “COMBINATION OF AN A2-ADRENOCEPTOR SUBTYPE C (ALPHA-2C) ANTAGONIST WITH A NOREPINEPHRINE REUPTAKE INHIBITOR FOR THE TREATMENT OF SLEEP APNEA” (priority 2021, published 2025).

In this test the test system is pig model of obstructive sleep apnea (OSA). Nature of the test: pig model of obstructive sleep apnea (OSA): collapsibility of the upper respiratory tract under negative pressure. In kind it is in vivo, German Landrace pigs. The following applies: for inhibited upper airway collapsibility at all negative pressures of −50, −100 and −150 cm head (cm H2O) in all pigs: intravenous bolus 1 mg/kg followed by infusion of 0,275 mg/kg/h for four hours. An excerpt:
The therapeutic potential of the combination of an α2-Adrenoceptor subtype C (alpha-2C) antagonists with a muscarinic receptor antagonist according to the present invention in sleep apnea can be assessed preclinically in a pig model of obstructive sleep apnea (OSA).
Using negative pressure, it is possible to induce collapse and thus obstruction of the upper respiratory tract in anaesthetized, spontaneously breathing pigs (Wirth K. J. et al., Sleep 36(5) (2013) pp. 699-708).
German Landrace pigs are used for the model. The pigs are anaesthetized and tracheotomized. Two tracheal cannulas are inserted into the trachea, one into the rostral part and the other into the caudal part of the trachea. Using a connection piece, the rostral cannula is connected to a tube to the negative pressure device and to the distal tracheal cannula. The distal tracheal cannula is additionally connected to a tube with an open end to atmosphere via a connection piece that served for free tracheal breathing, circumventing the upper airway. By appropriate opening and clamping of those tubes breathing can be switched from nasal breathing to breathing through the caudal tracheal cannula, circumventing the upper airway, and the (isolated) upper airway can be connected to the negative pressure device, causing airflow in the inspiratory direction.
At certain points in time, the collapsibility of the upper respiratory tract is tested by having the pig breathe via the caudal cannula and applying negative pressures of −50, −100 and −150 cm water head (cm H2O) to the upper respiratory tract. This causes the upper respiratory tract to collapse, which manifests itself in an interruption of the airflow and a pressure drop in the tube system. This test is conducted prior to the administration of the test substance and at certain intervals after the administration of the test substance. An appropriately effective test substance can prevent this collapse of the respiratory tract in the inspiratory phase.

Where [1] appears, read: R-oxybutynin intravenous bolus 1 mg/kg + infusion 0.275 mg/kg/h for four hours, 0 min.
Setting [2] is: R-oxybutynin intravenous bolus 1 mg/kg + infusion 0.275 mg/kg/h for four hours, 10 min.
Setting [3] is: R-oxybutynin intravenous bolus 1 mg/kg + infusion 0.275 mg/kg/h for four hours, 30 min.
[4] abbreviates: R-oxybutynin intravenous bolus 1 mg/kg + infusion 0.275 mg/kg/h for four hours, 60 min.
[5] abbreviates: R-oxybutynin intravenous bolus 1 mg/kg + infusion 0.275 mg/kg/h for four hours, 120 min.
[6] abbreviates: R-oxybutynin intravenous bolus 1 mg/kg + infusion 0.275 mg/kg/h for four hours, 180 min.
The mark [7] stands for this setting: R-oxybutynin intravenous bolus 1 mg/kg + infusion 0.275 mg/kg/h for four hours, 240 min.
Where [8] appears, read: intravenous bolus 1 mg/kg + infusion 0.275 mg/kg/h for four hours, 0 min.
The mark [9] stands for this setting: intravenous bolus 1 mg/kg + infusion 0.275 mg/kg/h for four hours, 10 min.
[10] abbreviates: intravenous bolus 1 mg/kg + infusion 0.275 mg/kg/h for four hours, 30 min.
[11] abbreviates: intravenous bolus 1 mg/kg + infusion 0.275 mg/kg/h for four hours, 60 min.
Where [12] appears, read: intravenous bolus 1 mg/kg + infusion 0.275 mg/kg/h for four hours, 120 min.
The mark [13] stands for this setting: intravenous bolus 1 mg/kg + infusion 0.275 mg/kg/h for four hours, 180 min.
Setting [14] is: intravenous bolus 1 mg/kg + infusion 0.275 mg/kg/h for four hours, 240 min.

Turning to `CCN(CC)CC#CCOC(=O)[C@](O)(c1ccccc1)C1CCCCC1` [R-oxybutynin, R-Oxybutynin], the “inhibited upper airway collapsibility at all negative pressures of −50, −100 and −150 cm head (cm H2O) in all pigs” value was “at no time”. Further, the “upper airway collapsibility at the negative pressure of −50 cm head (cm H2O)” value (R-Oxybutynin intravenous bolus 1 mg/kg + infusion 0,275 mg/kg/h, time point 60 min) is “inhibited”. Also, under setting [1], the “Percent pigs without collaps −50 cm H2O, %” value is 0%; the “Percent pigs without collaps −100 cm H2O, %” value is listed as 0%; the “Percent pigs without collaps −150 cm H2O, %” value is recorded as 0%. In addition, under setting [2], the “Percent pigs without collaps −50 cm H2O, %” value was 0%; the “Percent pigs without collaps −100 cm H2O, %” value turned out to be 0%; the “Percent pigs without collaps −150 cm H2O, %” value came to 0%. Under setting [3], the “Percent pigs without collaps −50 cm H2O, %” value is listed as 0%; the “Percent pigs without collaps −100 cm H2O, %” value is 0%; the “Percent pigs without collaps −150 cm H2O, %” value was found to be 0%. For the same compound, under setting [4], the “Percent pigs without collaps −50 cm H2O, %” value amounted to 100%; the “Percent pigs without collaps −100 cm H2O, %” value was found to be 50%; the “Percent pigs without collaps −150 cm H2O, %” value amounted to 0%. Also, under setting [5], the “Percent pigs without collaps −50 cm H2O, %” value turned out to be 0%; the “Percent pigs without collaps −100 cm H2O, %” value came to 0%; the “Percent pigs without collaps −150 cm H2O, %” value is given as 0%. Moreover, under setting [6], the “Percent pigs without collaps −50 cm H2O, %” value is 0%; the “Percent pigs without collaps −100 cm H2O, %” value is reported as 0%; the “Percent pigs without collaps −150 cm H2O, %” value is 0%. Moreover, under setting [7], the “Percent pigs without collaps −50 cm H2O, %” value amounted to 0%; the “Percent pigs without collaps −100 cm H2O, %” value was determined as 0%; the “Percent pigs without collaps −150 cm H2O, %” value amounted to 0%.
In the case of `CCN(CC)CC#CCOC(=O)C(O)(c1ccccc1)C1CCCCC1` (stereo not drawn) [oxybutynin, Oxybutynin], the “inhibited upper airway collapsibility at all negative pressures of −50, −100 and −150 cm head (cm H2O) in all pigs” value is on record as “at no time”. For the same compound, under setting [8], the “Percent pigs without collaps −50 cm H2O, %” value came out at 0%; the “Percent pigs without collaps −100 cm H2O, %” value was found to be 0%; the “Percent pigs without collaps −150 cm H2O, %” value came out at 0%. Under setting [9], the “Percent pigs without collaps −50 cm H2O, %” value was found to be 0%; the “Percent pigs without collaps −100 cm H2O, %” value is on record as 0%; the “Percent pigs without collaps −150 cm H2O, %” value is 0%. Under setting [10], the “Percent pigs without collaps −50 cm H2O, %” value is 0%; the “Percent pigs without collaps −100 cm H2O, %” value worked out at 0%; the “Percent pigs without collaps −150 cm H2O, %” value came out at 0%. Further, under setting [11], the “Percent pigs without collaps −50 cm H2O, %” value is given as 0%; the “Percent pigs without collaps −100 cm H2O, %” value was 0%; the “Percent pigs without collaps −150 cm H2O, %” value was found to be 0%. Under setting [12], the “Percent pigs without collaps −50 cm H2O, %” value amounted to 0%; the “Percent pigs without collaps −100 cm H2O, %” value is recorded as 0%; the “Percent pigs without collaps −150 cm H2O, %” value was determined as 0%. Moreover, under setting [13], the “Percent pigs without collaps −50 cm H2O, %” value came out at 0%; the “Percent pigs without collaps −100 cm H2O, %” value worked out at 0%; the “Percent pigs without collaps −150 cm H2O, %” value came to 0%. Further, under setting [14], the “Percent pigs without collaps −50 cm H2O, %” value stood at 0%; the “Percent pigs without collaps −100 cm H2O, %” value is recorded as 0%; the “Percent pigs without collaps −150 cm H2O, %” value was 0%.
